Laboratory results as given in patent US20060069132A1, “Azolecarboxamide herbicides” (priority 2004, published 2006).

Columns and labels:
[1] = system: barnyardgrass; assay: Test B pre-/postemergence herbicide test; type: in vivo, Echinochloa crus-galli; settings: for Barnyardgrass plant response rating (0 to 100 scale) / Plant response rating, Barnyardgrass: 0 = no effect, 100 = complete control; for Barnyardgrass plant response rating: postemergence
Summary of the method: (§1)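 Seeds were planted and treated preemergence with compounds formulated in a non-phytotoxic solvent mixture containing surfactant, while plants at the 1- to 4-leaf stage (2 to 18 cm) received postemergence sprays. Flooded paddy plants were grown to the 2-leaf stage. After 13 to 15 days in a greenhouse, injury was visually rated 0–100 against untreated controls.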

[2] = system: Surinam grass; assay: Test B pre-/postemergence herbicide test; type: in vivo, Urochloa decumbens; settings: for Surinam Grass plant response rating (0 to 100 scale) / Plant response rating, Surinam Grass: 0 = no effect, 100 = complete control; for Surinam Grass plant response rating: postemergence
Summary of the method: (§2)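 Visual rating, 0 (no effect) to 100 (complete control), versus untreated controls after 13–15 d in greenhouse. Pre- and postemergence applications (postemergence plants 2–18 cm, 1–4 leaves); flooded paddy arm at 2-leaf stage. Compounds in non-phytotoxic solvent plus surfactant.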

[3] = system: cocklebur; assay: Test B pre-/postemergence herbicide test; type: in vivo, Xanthium strumarium; settings: for Cocklebur plant response rating (0 to 100 scale) / Plant response rating, Cocklebur: 0 = no effect, 100 = complete control; for Cocklebur plant response rating: postemergence
Summary of the method: as §1

[4] = system: corn; assay: Test B pre-/postemergence herbicide test; type: in vivo, Zea mays; settings: for Corn plant response rating (0 to 100 scale) / Plant response rating, Corn: 0 = no effect, 100 = complete control; for Corn plant response rating: postemergence
Summary of the method: as §2

[5] = system: large crabgrass; assay: Test B pre-/postemergence herbicide test; type: in vivo, Digitaria sanguinalis; settings: for Crabgrass, Large plant response rating (0 to 100 scale) / Plant response rating, Crabgrass, Large: 0 = no effect, 100 = complete control; for Crabgrass, Large plant response rating: postemergence
Summary of the method: as §2

[6] = system: giant foxtail; assay: Test B pre-/postemergence herbicide test; type: in vivo, Setaria faberi; settings: for Foxtail, Giant plant response rating (0 to 100 scale) / Plant response rating, Foxtail, Giant: 0 = no effect, 100 = complete control; for Foxtail, Giant plant response rating: postemergence
Summary of the method: as §2

[7] = system: lambsquarters; assay: Test B pre-/postemergence herbicide test; type: in vivo, Chenopodium album; settings: for Lambsquarters plant response rating (0 to 100 scale) / Plant response rating, Lambsquarters: 0 = no effect, 100 = complete control; for Lambsquarters plant response rating: postemergence
Summary of the method: as §2

[8] = system: pigweed; assay: Test B pre-/postemergence herbicide test; type: in vivo, Amaranthus retroflexus; settings: for Pigweed plant response rating (0 to 100 scale) / Plant response rating, Pigweed: 0 = no effect, 100 = complete control; for Pigweed plant response rating: postemergence
Summary of the method: as §2

[9] = system: velvetleaf; assay: Test B pre-/postemergence herbicide test; type: in vivo, Abutilon theophrasti; settings: for Velvetleaf plant response rating: postemergence; for Plant response rating, Velvetleaf: 0 = no effect, 100 = complete control
Summary of the method: as §2

[10] = system: blackgrass; assay: Test B postemergence herbicide test; type: in vivo, Alopecurus myosuroides; settings: postemergence
Summary of the method: (§3)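 Postemergence plants were sprayed with formulated test chemicals at 2 to 18 cm height (1- to 4-leaf stage); paddy species were grown to the 2-leaf stage. After 13 to 15 days in a greenhouse, injury was rated visually against untreated controls on a 0–100 scale (0 = no effect, 100 = complete control).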

[11] = system: wheat; assay: Test B postemergence herbicide test; type: in vivo, Triticum aestivum; parameters: key to Wheat plant response rating: 0 = no effect, 100 = complete control; settings: postemergence
Summary of the method: (§4)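 Scale 0–100: zero equals no visible effect, 100 complete control, judged by eye relative to controls. Timing: 13 to 15 days in greenhouse post-treatment. Growth stage at spraying: two leaves (paddy) or one to four leaves, 2–18 cm (postemergence).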

[12] = system: wild oat; assay: Test B postemergence herbicide test; type: in vivo, Avena fatua; settings: postemergence
Summary of the method: as §4

[13] = system: rice; assay: Test B flooded paddy test; type: in vivo, Oryza sativa; settings: 1000 g ai/ha, scale 0 to 100 (0 no effect, 100 complete control)
Summary of the method: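 Read-out: visual comparison with controls, scored 0 to 100, where 100 means complete control and 0 no effect. Formulated chemicals were applied postemergence to plants 2–18 cm tall (1- to 4-leaf), or to flooded-paddy plants at the 2-leaf stage, then held 13 to 15 days under glass.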

[14] = system: small flower umbrella sedge; assay: Test B flooded paddy test; type: in vivo, Cyperus difformis; settings: 1000 g ai/ha, scale 0 to 100 (0 no effect, 100 complete control)
Summary of the method: as §3

[15] = system: ducksalad; assay: Test B flooded paddy test; type: in vivo, Heteranthera limosa; settings: 1000 g ai/ha, scale 0 to 100 (0 no effect, 100 complete control)
Summary of the method: as §3

[16] = 125 g ai/ha, visual rating, scale 0 (no effect) to 100 (complete control)
[17] = 500 g ai/ha, visual rating, preemergence
[18] = 500 g ai/ha, scale 0 to 100, 0 is no effect, 100 is complete control
[19] = 125 g ai/ha, 0 is no effect, 100 is complete control, preemergence

SMILES: CCn1nc(C(C)(C)C)cc1C(=O)Nc1cncc(C(=O)N(C)C)n1 [Compound 287]
- Barnyardgrass plant response rating (0 to 100 scale) ([1]; 125 g ai/ha, preemergence): 80
- Barnyardgrass plant response rating [1, 16]: 0
- Plant response rating, Barnyardgrass [1, 17]: 100
- Barnyardgrass plant response rating [1, 18]: 20
- Surinam Grass plant response rating (0 to 100 scale) ([2]; 125 g ai/ha, preemergence): 50
- Surinam Grass plant response rating [2, 16]: 0
- Plant response rating, Surinam Grass [2, 17]: 80
- Surinam Grass plant response rating [2, 18]: 10
- Cocklebur plant response rating (0 to 100 scale) ([3]; 125 g ai/ha, preemergence): 0
- Cocklebur plant response rating [3, 16]: 10
- Plant response rating, Cocklebur [3, 17]: 60
- Cocklebur plant response rating [3, 18]: 10
- Corn plant response rating (0 to 100 scale) ([4]; 125 g ai/ha, preemergence): 0
- Corn plant response rating [4, 16]: 0
- Plant response rating, Corn [4, 17]: 30
- Corn plant response rating [4, 18]: 70
- Crabgrass, Large plant response rating (0 to 100 scale) ([5]; 125 g ai/ha, preemergence): 70
- Crabgrass, Large plant response rating [5, 16]: 0
- Plant response rating, Crabgrass, Large [5, 17]: 100
- Crabgrass, Large plant response rating [5, 18]: 0
- Foxtail, Giant plant response rating (0 to 100 scale) ([6]; 125 g ai/ha, preemergence): 10
- Foxtail, Giant plant response rating [6, 16]: 20
- Plant response rating, Foxtail, Giant [6, 17]: 90
- Foxtail, Giant plant response rating [6, 18]: 80
- Lambsquarters plant response rating (0 to 100 scale) ([7]; 125 g ai/ha, preemergence): 100
- Lambsquarters plant response rating [7, 16]: 10
- Plant response rating, Lambsquarters [7, 17]: 100
- Lambsquarters plant response rating [7, 18]: 20
- Pigweed plant response rating (0 to 100 scale) ([8]; 125 g ai/ha, preemergence): 90
- Pigweed plant response rating [8, 16]: 20
- Plant response rating, Pigweed [8, 17]: 100
- Pigweed plant response rating [8, 18]: 30
- Velvetleaf plant response rating [9, 16]: 0
- Plant response rating, Velvetleaf [9, 17]: 100
- Velvetleaf plant response rating [9, 18]: 60
- Blackgrass plant response rating [10, 16]: 10
- Blackgrass plant response rating [10, 18]: 30
- Wheat plant response rating [11, 16]: 10
- Wheat plant response rating [11, 18]: 30
- Oat, Wild plant response rating [12, 16]: 20
- Oat, Wild plant response rating [12, 18]: 40
- Rice plant response rating [13]: 70
- Sedge, Umbrella plant response rating [14]: 80
- Ducksalad plant response rating [15]: 80

SMILES: CCn1nc(C(C)(C)C)cc1C(=O)Nc1cccc(OC(F)(F)C(F)F)c1 [Compound 333]
- Plant response rating (0 to 100 scale), Barnyardgrass [1, 19]: 0
- Barnyardgrass plant response rating [1, 16]: 10
- Plant response rating, Barnyardgrass [1, 17]: 20
- Barnyardgrass plant response rating [1, 18]: 40
- Plant response rating (0 to 100 scale), Surinam Grass [2, 19]: 10
- Surinam Grass plant response rating [2, 16]: 20
- Plant response rating, Surinam Grass [2, 17]: 20
- Surinam Grass plant response rating [2, 18]: 30
- Plant response rating (0 to 100 scale), Cocklebur [3, 19]: 0
- Cocklebur plant response rating [3, 16]: 20
- Plant response rating, Cocklebur [3, 17]: 0
- Cocklebur plant response rating [3, 18]: 80
- Plant response rating (0 to 100 scale), Corn [4, 19]: 0
- Corn plant response rating [4, 16]: 10
- Plant response rating, Corn [4, 17]: 0
- Corn plant response rating [4, 18]: 10
- Plant response rating (0 to 100 scale), Crabgrass, Large [5, 19]: 40
- Crabgrass, Large plant response rating [5, 16]: 40
- Plant response rating, Crabgrass, Large [5, 17]: 70
- Crabgrass, Large plant response rating [5, 18]: 100
- Plant response rating (0 to 100 scale), Foxtail, Giant [6, 19]: 10
- Foxtail, Giant plant response rating [6, 16]: 30
- Plant response rating, Foxtail, Giant [6, 17]: 20
- Foxtail, Giant plant response rating [6, 18]: 40
- Plant response rating (0 to 100 scale), Lambsquarters [7, 19]: 40
- Lambsquarters plant response rating [7, 16]: 90
- Plant response rating, Lambsquarters [7, 17]: 100
- Lambsquarters plant response rating [7, 18]: 100
- Plant response rating (0 to 100 scale), Pigweed [8, 19]: 90
- Pigweed plant response rating [8, 16]: 90
- Plant response rating, Pigweed [8, 17]: 100
- Pigweed plant response rating [8, 18]: 100
- Plant response rating (0 to 100 scale), Velvetleaf [9, 19]: 10
- Velvetleaf plant response rating [9, 16]: 50
- Velvetleaf plant response rating [9, 18]: 60
- Blackgrass plant response rating [10, 16]: 30
- Blackgrass plant response rating [10, 18]: 70
- Wheat plant response rating [11, 16]: 20
- Wheat plant response rating [11, 18]: 30
- Oat, Wild plant response rating [12, 16]: 40
- Oat, Wild plant response rating [12, 18]: 60
- Rice plant response rating [13]: 20
- Sedge, Umbrella plant response rating [14]: 80
- Ducksalad plant response rating [15]: 80

SMILES: CCN1N=C(C(C)(C)C)CC1C(=O)Nc1cc(C(=O)N2CCCC2)ccc1F (racemic) [Compound 309]
- Barnyardgrass plant response rating (0 to 100 scale) ([1]; 125 g ai/ha, preemergence): 80
- Barnyardgrass plant response rating [1, 16]: 20
- Plant response rating, Barnyardgrass [1, 17]: 100
- Barnyardgrass plant response rating [1, 18]: 40
- Surinam Grass plant response rating (0 to 100 scale) ([2]; 125 g ai/ha, preemergence): 60
- Surinam Grass plant response rating [2, 16]: 10
- Plant response rating, Surinam Grass [2, 17]: 100
- Surinam Grass plant response rating [2, 18]: 40
- Cocklebur plant response rating (0 to 100 scale) ([3]; 125 g ai/ha, preemergence): 30
- Cocklebur plant response rating [3, 16]: 40
- Plant response rating, Cocklebur [3, 17]: 80
- Cocklebur plant response rating [3, 18]: 70
- Corn plant response rating (0 to 100 scale) ([4]; 125 g ai/ha, preemergence): 60
- Corn plant response rating [4, 16]: 20
- Plant response rating, Corn [4, 17]: 90
- Corn plant response rating [4, 18]: 60
- Crabgrass, Large plant response rating (0 to 100 scale) ([5]; 125 g ai/ha, preemergence): 60
- Crabgrass, Large plant response rating [5, 16]: 0
- Plant response rating, Crabgrass, Large [5, 17]: 100
- Crabgrass, Large plant response rating [5, 18]: 40
- Foxtail, Giant plant response rating (0 to 100 scale) ([6]; 125 g ai/ha, preemergence): 80
- Foxtail, Giant plant response rating [6, 16]: 20
- Plant response rating, Foxtail, Giant [6, 17]: 100
- Foxtail, Giant plant response rating [6, 18]: 40
- Lambsquarters plant response rating (0 to 100 scale) ([7]; 125 g ai/ha, preemergence): 90
- Lambsquarters plant response rating [7, 16]: 40
- Plant response rating, Lambsquarters [7, 17]: 90
- Lambsquarters plant response rating [7, 18]: 80
- Pigweed plant response rating (0 to 100 scale) ([8]; 125 g ai/ha, preemergence): 70
- Pigweed plant response rating [8, 16]: 50
- Plant response rating, Pigweed [8, 17]: 100
- Pigweed plant response rating [8, 18]: 70
- Velvetleaf plant response rating [9, 16]: 20
- Plant response rating, Velvetleaf [9, 17]: 100
- Velvetleaf plant response rating [9, 18]: 40
- Blackgrass plant response rating [10, 16]: 10
- Blackgrass plant response rating [10, 18]: 30
- Wheat plant response rating [11, 16]: 20
- Wheat plant response rating [11, 18]: 30
- Oat, Wild plant response rating [12, 16]: 20
- Oat, Wild plant response rating [12, 18]: 40
- Rice plant response rating [13]: 80
- Sedge, Umbrella plant response rating [14]: 80
- Ducksalad plant response rating [15]: 90
